Measurements from patent US20240082431A1, “METALLOHYDROPORPHYRINS FOR PHOTOACOUSTIC IMAGING” (NIRvana Sciences, Inc., priority 2021, published 2024).

Assay: Photoacoustic imaging of dyes in agar phantoms (VEVO LAZR 2100, PA scanning mode 680-900 nm)
Assay type: physicochemical
Conditions: agar phantom, 63 μM B107, 50 μM ICG in DMF
Procedure: Indocyanine Green (ICG), was obtained from Sigma-Aldrich (Catalogue No. I2633; Sigma-Aldrich Corp., St. Louis, Missouri, United States of America). The nickel bacteriochlorin B107 was prepared as described in Sun et al., 2013 and Chen et al, 2012. Each dye was dissolved in N,N-dimethylformamide (DMF) at the desired concentrations prior to the imaging experiments. Molds for preparing agar phantoms were typically 90 mm diameter glass Petri dishes.
A highly purified agar powder (Catalogue No. A7921; Sigma-Aldrich Corp., St. Louis, Missouri, United States of America) was dissolved in water (Reagent Grade, Type I) to a final concentration of 2.0% and heated to the melting temperature of 95° C. in a microwave oven. […] The bottle containing agar was held at 75-85° C. for 1-3 hours using a standard hot plate and a double boiler to avoid scorching (which causes a detectable increase in the absorption coefficient). This waiting period at an elevated temperature allows the slow release of air bubbles and produces an agar solution with negligible absorption and very low turbidity. […]
Photoacoustic imaging was performed using a VEVO® LAZR^2100 imaging system (VisualSonics, Inc., Toronto, Ontario, Canada) equipped with software version 1.7.2. […] The tubing and its associated image regions were isolated by ultrasound and PA signals for PA intensity quantitation. […]

## CC1(C)C(/C=C/C=C/C=C/C=C2\N(CCCCS(=O)(=O)O)c3ccc4ccccc4c3C2(C)C)=[N+](CCCCS(=O)(=O)[O-])c2ccc3ccccc3c21 [ICG, Indocyanine Green]
Depth 3 mm
  Max (nm) of PAI signal: 790 nm
Depth 6 mm
  Max (nm) of PAI signal: 795 nm
